The target in assay [1] is Kappa-type opioid receptor (Homo sapiens, UniProt P41145). The experiment in a line: Displacement of [3H]diprenorphine from human cloned kappa opioid receptor.
Assay [2] has as its target Delta-type opioid receptor (Homo sapiens, UniProt P41143). The experiment in a line: Displacement of [3H]diprenorphine from human cloned delta opioid receptor.
Assay [3] deals with T1, Mu-type opioid receptor (Homo sapiens, UniProt P35372). The experiment in a line: Displacement of [3H]diprenorphine from human cloned mu opioid receptor. (Displacement assays read how much labelled ligand stays bound in the presence of the test substance.)
T1 sequence (P35372 whole entry): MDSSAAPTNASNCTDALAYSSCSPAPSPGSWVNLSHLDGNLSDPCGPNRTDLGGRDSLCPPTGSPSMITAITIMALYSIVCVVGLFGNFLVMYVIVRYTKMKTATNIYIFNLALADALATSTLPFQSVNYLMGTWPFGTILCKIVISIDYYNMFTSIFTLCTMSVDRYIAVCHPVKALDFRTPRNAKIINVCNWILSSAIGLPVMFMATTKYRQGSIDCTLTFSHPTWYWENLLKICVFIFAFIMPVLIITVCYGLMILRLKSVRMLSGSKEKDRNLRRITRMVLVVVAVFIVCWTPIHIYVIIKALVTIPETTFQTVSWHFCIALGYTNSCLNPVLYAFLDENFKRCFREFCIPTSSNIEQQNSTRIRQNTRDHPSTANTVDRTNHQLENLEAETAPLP
Assay [4] addresses T1, Mu-type opioid receptor. The assay can be described thus: Inhibition of loperamide-stimulated [35S]GTP-gamma-S binding to membranes containing mu opioid receptor. It is filed as functional. A general note: GTPγS resists hydrolysis and so accumulates on activated G proteins.

A value given as a limit tells only on which side of the number the result lay.

Sequence of Kappa-type opioid receptor (P41145 whole entry): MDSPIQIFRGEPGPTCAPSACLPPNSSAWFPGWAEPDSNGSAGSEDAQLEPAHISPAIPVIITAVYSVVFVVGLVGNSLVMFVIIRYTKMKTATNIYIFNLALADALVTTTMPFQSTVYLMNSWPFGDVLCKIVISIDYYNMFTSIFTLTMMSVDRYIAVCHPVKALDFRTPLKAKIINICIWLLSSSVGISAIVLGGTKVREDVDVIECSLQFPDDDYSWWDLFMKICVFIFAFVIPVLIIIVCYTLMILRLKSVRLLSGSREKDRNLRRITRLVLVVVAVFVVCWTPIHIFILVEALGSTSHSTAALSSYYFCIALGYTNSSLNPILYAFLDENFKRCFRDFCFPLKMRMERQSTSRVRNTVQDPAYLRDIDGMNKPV
Sequence of Delta-type opioid receptor (P41143 whole entry): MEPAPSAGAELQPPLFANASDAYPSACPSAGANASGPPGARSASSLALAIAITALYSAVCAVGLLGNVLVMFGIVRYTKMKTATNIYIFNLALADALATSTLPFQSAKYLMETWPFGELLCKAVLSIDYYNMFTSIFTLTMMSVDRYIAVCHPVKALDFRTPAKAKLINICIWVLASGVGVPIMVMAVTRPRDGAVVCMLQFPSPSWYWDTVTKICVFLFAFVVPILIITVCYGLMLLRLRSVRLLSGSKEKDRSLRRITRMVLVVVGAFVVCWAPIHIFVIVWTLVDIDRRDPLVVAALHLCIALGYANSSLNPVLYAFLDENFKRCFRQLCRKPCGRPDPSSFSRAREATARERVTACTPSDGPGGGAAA

In general, Ki refers to the dissociation constant of the complex between target and ligand, obtained from inhibition or displacement. The low end stands for tighter binding, the high end for weaker binding. In general, IC50 refers to the concentration that inhibits the measured activity by half. Low readings indicate greater potency, high ones weaker potency. On to `C[C@H]1CN(CCc2ccccc2)[C@H](CCN2CCCC2)C[C@@]1(C)c1cccc(O)c1`, for which the Ki (in assay [1]; in assay [2]; on Mu-type opioid receptor [3]) was more than 1000 nM in each case. This compound came in with a 50% inhibitory concentration (IC50) at Mu-type opioid receptor [4] of more than 1000 nM.
`CCC[C@@H]1C[C@@](C)(c2cccc(O)c2)[C@@H](C)CN1`: the results for the inhibition constant (Ki) (in assay [1]; in assay [2]; on Mu-type opioid receptor [3]) were 690 nM, more than 1000 nM and 560 nM, respectively. Besides, at Mu-type opioid receptor [4], the half-maximal inhibitory concentration (IC50) is more than 1000 nM.
As for `CCC[C@@H]1C[C@@](C)(c2cccc(O)c2)[C@@H](C)CN1Cc1ccccc1`, the inhibition constant Ki in assay [1] is 360 nM; in assay [2], 880 nM; on Mu-type opioid receptor [3], 700 nM. Further, the IC50 at Mu-type opioid receptor [4] worked out at 170 nM.
For the compound `C[C@H]1CN(CCc2ccccc2)[C@H](CCc2ccccc2)C[C@@]1(C)c1cccc(O)c1`, the Ki in assay [1] turned out to be 790 nM; in assay [2], 610 nM; at Mu-type opioid receptor [3], 160 nM. The same compound showed an IC50 at Mu-type opioid receptor [4] of 210 nM.
Consider `C[C@H]1CN(CCc2ccccc2)[C@H](c2ccccc2)C[C@@]1(C)c1cccc(O)c1`, for which the Ki in assay [1] is 290 nM; in assay [2] it was 260 nM; on Mu-type opioid receptor [3], 280 nM. On Mu-type opioid receptor [4], this compound returned an IC50 of more than 1000 nM.
For `C[C@H]1CN(CCc2ccccc2)[C@H](CCN)C[C@@]1(C)c1cccc(O)c1` the same measures were 510 nM, more than 1000 nM, 780 nM and 390 nM.
Regarding `CCC[C@@H]1C[C@@](C)(c2cccc(O)c2)[C@@H](C)CN1CCCc1ccccc1`, the figures for the Ki (in assay [1]; in assay [2]; on Mu-type opioid receptor [3]) were 74 nM, 180 nM and 19 nM, respectively. Besides, on Mu-type opioid receptor [4], the IC50 worked out at 16 nM.
For `C[C@H]1CN(CCc2ccccc2)[C@H](CCNC(=O)c2ccccc2)C[C@@]1(C)c1cccc(O)c1` the same measures were 200 nM, 710 nM, 59 nM and 130 nM.
Take `CCC[C@@H]1C[C@@](C)(c2cccc(O)c2)[C@@H](C)CN1CCC`: the figures for the Ki (in assay [1]; in assay [2]; on Mu-type opioid receptor [3]) were 360 nM, more than 1000 nM and 430 nM, respectively. For the same compound, the IC50 on Mu-type opioid receptor [4] came out at 320 nM.
As for `CCCCN1C[C@H](C)[C@](C)(c2cccc(O)c2)C[C@H]1CCC`, the inhibition constant Ki in assay [1] was 610 nM; in assay [2], more than 1000 nM; at Mu-type opioid receptor [3] it was 550 nM. Moreover, the IC50 on Mu-type opioid receptor [4] is 290 nM.
`CCCCCN1C[C@H](C)[C@](C)(c2cccc(O)c2)C[C@H]1CCC`: the inhibition constant Ki was 570 nM in assay [1], more than 1000 nM in assay [2] and 380 nM on Mu-type opioid receptor [3]. For the same compound, at Mu-type opioid receptor [4], the concentration for half-maximal inhibition (IC50) amounted to 210 nM.
With `CCCCCCN1C[C@H](C)[C@](C)(c2cccc(O)c2)C[C@H]1CCC`, the inhibition constant Ki in assay [1] was 150 nM; in assay [2], 340 nM; at Mu-type opioid receptor [3], 47 nM. On Mu-type opioid receptor [4], this compound came in with an IC50 of 39 nM.
As for `CCCC[C@@H]1C[C@@](C)(c2cccc(O)c2)[C@@H](C)CN1CCc1ccccc1`, the Ki worked out at 200 nM in assay [1], 580 nM in assay [2] and 110 nM on Mu-type opioid receptor [3]. In addition, the 50% inhibitory concentration (IC50) on Mu-type opioid receptor [4] is 120 nM.
Turning to `CCC[C@@H]1C[C@@](C)(c2cccc(O)c2)[C@@H](C)CN1C`, the inhibition constant Ki in assay [1] was 220 nM; in assay [2], more than 1000 nM; on Mu-type opioid receptor [3], 520 nM. For the same compound, the IC50 on Mu-type opioid receptor [4] was determined as 170 nM.
As for `CCC[C@@H]1C[C@@](C)(c2cccc(O)c2)[C@@H](C)CN1CC`, the values for the inhibition constant (Ki) in assay [1] and in assay [2] were 270 nM and more than 1000 nM, respectively. The compound also gave a 50% inhibitory concentration (IC50) on Mu-type opioid receptor [4] of 100 nM.
For the compound `C[C@H]1CN(CCc2ccccc2)[C@H](Cc2ccccc2)C[C@@]1(C)c1cccc(O)c1`, the values for the inhibitory constant (Ki) (in assay [1]; in assay [2]; on Mu-type opioid receptor [3]) were 920 nM, 800 nM and 290 nM, respectively. The IC50 on Mu-type opioid receptor [4] amounted to 280 nM.
Turning to `C[C@@H]1C[C@@](C)(c2cccc(O)c2)[C@@H](C)CN1CCc1ccccc1`, the Ki was 100 nM in assay [1], 65 nM in assay [2] and 15 nM at Mu-type opioid receptor [3]. For the same compound, the IC50 at Mu-type opioid receptor [4] was 50 nM.
In the same order, the values of `CC[C@@H]1C[C@@](C)(c2cccc(O)c2)[C@@H](C)CN1CCc1ccccc1` are 710 nM, 680 nM, 75 nM and 90 nM.
Consider `CCC[C@@H]1C[C@@](C)(c2cccc(O)c2)[C@@H](C)CN1CCc1ccccc1`, for which the inhibition constant (Ki) in assay [1] came to 110 nM; in assay [2], 120 nM; on Mu-type opioid receptor [3] it was 20 nM. The IC50 at Mu-type opioid receptor [4] was 15 nM.
For `C[C@H]1CN(CCc2ccccc2)[C@H](CCCc2ccccc2)C[C@@]1(C)c1cccc(O)c1` the same measures were 260 nM, 320 nM, 230 nM and 360 nM.
`CCCCCCCN1C[C@H](C)[C@](C)(c2cccc(O)c2)C[C@H]1CCC`: the inhibitory constant (Ki) in assay [1] came to 57 nM; in assay [2], 80 nM; on Mu-type opioid receptor [3] it was 13 nM. On Mu-type opioid receptor [4], this compound gave a half-inhibitory concentration (IC50) of 9 nM.
On to `CC(=O)NCC[C@@H]1C[C@@](C)(c2cccc(O)c2)[C@@H](C)CN1CCc1ccccc1`, for which the inhibitory constant (Ki) in assay [1] was 620 nM; in assay [2] it was more than 1000 nM; on Mu-type opioid receptor [3], 190 nM. At Mu-type opioid receptor [4], the concentration for half-maximal inhibition (IC50) is 130 nM.
For `CC(C)[C@@H]1C[C@@](C)(c2cccc(O)c2)[C@@H](C)CN1CCc1ccccc1`, the Ki is more than 1000 nM in assay [1], more than 1000 nM in assay [2] and 270 nM at Mu-type opioid receptor [3]. This compound showed a 50% inhibitory concentration (IC50) at Mu-type opioid receptor [4] of 620 nM.

For the origin of these results see ChEMBL document CHEMBL1149448, “Synthesis and structure-activity relationships of a new series of 2alpha-substituted trans-4,5-dimethyl-4-(3-hydroxyphenyl)piperidine as mu-selective opioid antagonists” (Bioorg Med Chem Lett, 2006).
